Experimental data from patent US20050112573A1, “Method of detecting toxic substance” (priority 2001, published 2005).

Tested on: yeast genes (level of expressed mRNA)
Experiment: DNA chip analysis of expressed mRNA of yeast genes after 2 h culture with a toxic chemical substance
Type: cell-based, Saccharomyces cerevisiae S288C
Procedure, shortened: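 S. cerevisiae S288C in YPD at 25 °C was exposed at log phase for 2 h to a growth-inhibiting, non-lethal concentration of the chemical. Poly(A) mRNA was reverse-transcribed with Cy3- or Cy5-dUTP and hybridized to a whole-genome yeast DNA chip (65 °C, >12 h). Values are fluorescence ratios versus untreated cells.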

γ-hexachlorocyclohexane [(7)]
The level of expressed mRNA in the presence of chemical substance/ (yeast gene YFL010C, ratio to control without chemical substance, 2 h culture): 1.5 | The level of expressed mRNA in the presence of chemical substance/ (yeast gene YFL024C, ratio to control without chemical substance, 2 h culture): 3.3 | The level of expressed mRNA in the presence of chemical substance/The level of expressed mRNA in the absence of chemical substance (yeast gene YFL028C): 2.0 | The level of expressed mRNA in the presence of chemical substance/ (yeast gene YFL032W, ratio to control without chemical substance, 2 h culture): 1.1 | The level of expressed mRNA in the presence of chemical substance/The level of expressed mRNA in the absence of chemical substance (yeast gene YFL043C): 1.8 | The level of expressed mRNA in the presence of chemical substance/in the absence of chemical substance (yeast gene YGL035C): 1.2 | The level of expressed mRNA in the presence of chemical substance/ (yeast gene YGL037C, ratio to control without chemical substance, 2 h culture): 2.9 | The level of expressed mRNA in the presence of chemical substance/ (yeast gene YGL047W, ratio to control without chemical substance, 2 h culture): 1.7 | The level of expressed mRNA in the presence of chemical substance/ (yeast gene YGL053W, ratio to control without chemical substance, 2 h culture): 3.7 | The level of expressed mRNA in the presence of chemical substance/ (yeast gene YGL121C, ratio to control without chemical substance, 2 h culture): 4.7 | The level of expressed mRNA in the presence of chemical substance/The level of expressed mRNA in the absence of chemical substance (yeast gene YGL158W): 1.3 | The level of expressed mRNA in the presence of chemical substance/ (yeast gene YGL199C, ratio to control without chemical substance, 2 h culture): 1.3 | The level of expressed mRNA in the presence of chemical substance/The level of expressed mRNA in the absence of chemical substance (yeast gene YGL229C): 2.2 | The level of expressed mRNA in the presence of chemical substance/ (yeast gene YGR101W, ratio to control without chemical substance, 2 h culture): 1.5 | The level of expressed mRNA in the presence of chemical substance/ (yeast gene YGR110W, ratio to control without chemical substance, 2 h culture): 1.7 | The level of expressed mRNA in the presence of chemical substance/ (yeast gene YGR130C, ratio to control without chemical substance, 2 h culture): 1.3 | The level of expressed mRNA in the presence of chemical substance/The level of expressed mRNA in the absence of chemical substance (yeast gene YGR136W): 1.5 | The level of expressed mRNA in the presence of chemical substance/ (yeast gene YGR154C, ratio to control without chemical substance, 2 h culture): 2.0 | The level of expressed mRNA in the presence of chemical substance/The level of expressed mRNA in the absence of chemical substance (yeast gene YGR189C): 0.6 | The level of expressed mRNA in the presence of chemical substance/The level of expressed mRNA in the absence of chemical substance (yeast gene YGR213C): 7.0 | The level of expressed mRNA in the presence of chemical substance/ (yeast gene YGR221C, ratio to control without chemical substance, 2 h culture): 1.2 | The level of expressed mRNA in the presence of chemical substance/The level of expressed mRNA in the absence of chemical substance (yeast gene YGR257C): 2.4 | The level of expressed mRNA in the presence of chemical substance/in the absence of chemical substance (yeast gene YGR287C): 2.2 | The level of expressed mRNA in the presence of chemical substance/The level of expressed mRNA in the absence of chemical substance (yeast gene YHR004C): 1.5 | The level of expressed mRNA in the presence of chemical substance/The level of expressed mRNA in the absence of chemical substance (yeast gene YHR071W): 1.0 | The level of expressed mRNA in the presence of chemical substance/ (yeast gene YHR138C, ratio to control without chemical substance, 2 h culture): 3.0 | The level of expressed mRNA in the presence of chemical substance/The level of expressed mRNA in the absence of chemical substance (yeast gene YHR139C): 1.5 | The level of expressed mRNA in the presence of chemical substance/The level of expressed mRNA in the absence of chemical substance (yeast gene YHR142W): 0.9 | The level of expressed mRNA in the presence of chemical substance/ (yeast gene YHR199C, ratio to control without chemical substance, 2 h culture): 1.1 | The level of expressed mRNA in the presence of chemical substance/ (yeast gene YIL023C, ratio to control without chemical): 1.2 | The level of expressed mRNA in the presence of chemical substance/ (yeast gene YIL041W, ratio to control without chemical substance, 2 h culture): 0.8 | The level of expressed mRNA in the presence of chemical substance/ (yeast gene YIL087C, ratio to control without chemical substance, 2 h culture): 1.8 | The level of expressed mRNA in the presence of chemical substance/The level of expressed mRNA in the absence of chemical substance (yeast gene YIL123W): 0.5 | The level of expressed mRNA in the presence of chemical substance/The level of expressed mRNA in the absence of chemical substance (yeast gene YIL140W): 0.5 | The level of expressed mRNA in the presence of chemical substance/ (yeast gene YJL057C, ratio to control without chemical substance, 2 h culture): 2.7 | The level of expressed mRNA in the presence of chemical substance/ (yeast gene YJL066C, ratio to control without chemical substance, 2 h culture): 1.6 | The level of expressed mRNA in the presence of chemical substance/in the absence of chemical substance (yeast gene YJL070C): 1.4 | The level of expressed mRNA in the presence of chemical substance/ (yeast gene YJL082W, ratio to control without chemical substance, 2 h culture): 0.4 | The level of expressed mRNA in the presence of chemical substance/The level of expressed mRNA in the absence of chemical substance (yeast gene YJL089W): 1.1 | The level of expressed mRNA in the presence of chemical substance/The level of expressed mRNA in the absence of chemical substance (yeast gene YJL116C): 0.8 | The level of expressed mRNA in the presence of chemical substance/ (yeast gene YJL151C, ratio to control without chemical substance, 2 h culture): 1.4 | The level of expressed mRNA in the presence of chemical substance/ (yeast gene YJL152W, ratio to control without chemical substance, 2 h culture): 1.2 | The level of expressed mRNA in the presence of chemical substance/ (yeast gene YJL161W, ratio to control without chemical substance, 2 h culture): 3.6 | The level of expressed mRNA in the presence of chemical substance/in the absence of chemical substance (yeast gene YJL167W): 1.5 | The level of expressed mRNA in the presence of chemical substance/ (yeast gene YJL171C, ratio to control without chemical substance, 2 h culture): 1.4 | The level of expressed mRNA in the presence of chemical substance/in the absence of chemical substance (yeast gene YJL216C): 1.5 | The level of expressed mRNA in the presence of chemical substance/The level of expressed mRNA in the absence of chemical substance (yeast gene YJR004C): 0.4 | The level of expressed mRNA in the presence of chemical substance/ (yeast gene YJR008W, ratio to control without chemical substance, 2 h culture): 2.9 | The level of expressed mRNA in the presence of chemical substance/ (yeast gene YJR054W, ratio to control without chemical): 0.9 | The level of expressed mRNA in the presence of chemical substance/The level of expressed mRNA in the absence of chemical substance (yeast gene YJR086W): 1.7 | The level of expressed mRNA in the presence of chemical substance/The level of expressed mRNA in the absence of chemical substance (yeast gene YKL008C): 1.4 | The level of expressed mRNA in the presence of chemical substance/The level of expressed mRNA in the absence of chemical substance (yeast gene YKL013C): 1.8 | The level of expressed mRNA in the presence of chemical substance/The level of expressed mRNA in the absence of chemical substance (yeast gene YKL039W): 2.0 | The level of expressed mRNA in the presence of chemical substance/The level of expressed mRNA in the absence of chemical substance (yeast gene YKL041W): 1.0 | The level of expressed mRNA in the presence of chemical substance/ (yeast gene YKL071W, ratio to control without chemical substance, 2 h culture): 3.7 | The level of expressed mRNA in the presence of chemical substance/ (yeast gene YKL086W, ratio to control without chemical): 0.7
